The target of data set [1] is T1, purified full-length recombinant human ERα (Homo sapiens, UniProt P03372).
T1 sequence (P03372 1-595): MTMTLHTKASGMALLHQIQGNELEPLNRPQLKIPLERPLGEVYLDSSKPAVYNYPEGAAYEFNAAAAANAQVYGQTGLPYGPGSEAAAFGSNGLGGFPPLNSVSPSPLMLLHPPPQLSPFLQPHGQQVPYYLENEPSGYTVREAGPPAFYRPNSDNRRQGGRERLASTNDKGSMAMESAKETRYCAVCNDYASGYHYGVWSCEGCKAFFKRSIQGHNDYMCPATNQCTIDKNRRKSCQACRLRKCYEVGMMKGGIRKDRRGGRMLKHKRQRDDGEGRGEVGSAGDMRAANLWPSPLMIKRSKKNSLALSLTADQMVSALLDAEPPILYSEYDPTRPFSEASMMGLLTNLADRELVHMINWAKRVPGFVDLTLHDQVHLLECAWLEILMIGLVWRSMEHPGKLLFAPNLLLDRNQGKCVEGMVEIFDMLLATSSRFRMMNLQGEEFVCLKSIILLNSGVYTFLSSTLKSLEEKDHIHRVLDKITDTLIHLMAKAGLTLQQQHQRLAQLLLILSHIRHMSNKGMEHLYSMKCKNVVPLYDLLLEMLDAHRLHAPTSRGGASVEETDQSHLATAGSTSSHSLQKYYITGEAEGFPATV
Nature of the data set: Estrogen receptor α competitive radiometric binding assay ([3H]-E2). The following applies: for RBA (%) Mean ± S.E.M, ER α: ratio of IC50s of E2 and competitor, E2 set at 100%.
Procedure: (§1) Relative binding affinities (RBA) were determined by competitive radiometric binding assays, using purified full-length recombinant human ERα and ERβ (PanVera, Madison, Wis.). […] After shaking for a few seconds and centrifugation at 1500 g and 4° C. for 10 minutes, 150 μl/well of Optiphase ‘Super Mix’ scintillation liquid was mixed with 50 μl of supernatant of each sample and the radioactivity was measured in a MicroBeta counter (Wallac, Turku, Finland). Data were evaluated by a sigmoidal dose-response curve (Prism, GraphPad Software Inc.) to estimate the concentration of competitor at half-maximal specific binding (IC50). […] The selectivity for ERα and ERβ was obtained from the ratio R of the IC50 for ERα to the IC50 for ERβ for each test compound.

Data set [2] relates to human breast cancer cell line MCF-7. Nature of the data set: Proliferative activity in vitro (ATP luminescence, 6 days). It counts as cell-based. The following applies: for EC50: MCF-7, six days, read-out: Cell proliferation EC50 (nM) ± S.E.M. On the procedure:
The proliferative effect of the compounds of the invention was evaluated on human breast cancer cell line MCF-7 by measuring the number of viable cells after 6 days of treatment.
MCF-7 cells were routinely cultured as monolayers in Dulbecco's modified Eagle's medium (DMEM) containing 4 mM Glutamax and 4.5 g/l glucose and supplemented with 5% (v/v) decomplemented fetal calf serum (dFCS) and antibiotics.
Cells were plated at 2.10^6 cells/75 cm^2 flasks and incubated at 37° C. in a humidified atmosphere containing 5% CO2. They were passaged once weekly to maintain continuous exponential growth. Forty eight hours before the start of an experiment, near-confluent cells were changed to a phenol red free DMEM containing 5% steroid-stripped dFCS by dextran coated charcoal treatment (DCC-DMEM). On the day of the experiment, cells were harvested by brief exposure to trypsin and plated in DCC-DMEM in 96-well microplates at a density of 4.10^3 cells/well. The next day, the medium was renewed and test compounds, diluted appropriately in estrogen-free DMEM, were added and incubated for six days. […] At the end of the incubation period, cell proliferation was evaluated by quantitation of the cellular ATP content which signals the presence of metabolically active cells.
The assay, based on the ATP-dependent luciferase reaction, enables generation of a luminescent signal proportional to the amount of ATP present. As there is a linear relationship between the amount of ATP and the number of viable cells present in culture, the luminescent signal allowed to precisely evaluate cell proliferation (Crouch, S. P. M. et al. J. Immunol. Meth., 1993, 160, 81; Kangas, L. et al. Med. Biol. 1984, 62, 338; Petty, R. D. et al. J. Biolum. Chemilum. 1995, 10, 29).
In brief, the microplates were inverted to discard the culture medium and 100 μl of fresh medium was added into each well. The microplates were equilibrated at room temperature for approximately 30 minutes. 100 μl of luciferase reagent was added into each well and contents were mixed for 2 minutes to induce cell lysis. The plates were incubated at room temperature for 10 minutes to stabilize luminescence signal.
Luminescence was recorded using a microplate reader (Wallac, model 1420 Victor^2) and results were expressed as percentage of the control luminescence. Sigmoidal dose-response curves were plotted and EC50 values were calculated for each compound in order to evaluate their proliferative potency.

The test system of the next data set is Prepubescent female rats. Description: Estrogenic / uterotrophic activity in vivo (uterus wet weight). The following applies: Table 4, orally 3 mg/rat/day for 3 days; for change in vivo at 3 mg: Rattus norvegicus, po, 72 h, read-out: % stimulation vs vehicle (uterus weight). Set-up: species or system rat. The procedure:
Prepubescent female rats were orally treated at 3 mg/rat/day for 3 days. On the day following the last treatment, uteri were removed and wet weights were recorded.
The results are expressed as % of stimulation of uterus weight in comparison with vehicles. […]
Prepubescent female rats were orally treated with 0.3; 1; 3 or 10 mg/rat/day for 3 days. On the day following the last treatment, uteri were removed and wet weights were recorded.

Data set [3] concerns the target purified full-length recombinant human ERβ (Homo sapiens, UniProt Q92731). Description: Estrogen receptor β competitive radiometric binding assay ([3H]-E2). The following applies: for RBA (%) Mean ± S.E.M, ER β: ratio of IC50s of E2 and competitor, E2 set at 100%; for R (IC50s) αβ: ratio of the IC50 for ERα to the IC50 for ERβ.
Procedure: as §1
For data set [4], the system named is human endometrial adenocarcinoma Ishikawa cells. Description: Estrogenic and anti-estrogenic activities in vitro: induction of alkaline phosphatase (APase) activity. The data set is classed as cell-based. On the procedure: The estrogenic and anti-estrogenic potentials of new compounds were evaluated using the induction of alkaline phosphatase (APase) activity, an estrogen specific response in human endometrial adenocarcinoma Ishikawa cells (Botella J., J Steroid Biochem Molec Biol, 1995, 55: 77-84; Littlefield et al., Endocrinology, 1990, 127: 2757-2762).
Ishikawa cells were routinely grown as monolayers in Dulbecco's Modified Eagle's medium (DMEM) containing 4 mM Glutamax I and supplemented with 10% of decomplemented fetal calf serum (dFCS) and antibiotics. They were maintained in a humidified atmosphere of 5% CO2 and 95% air, at 37±0.1° C. Stocks were performed once a week to maintain continuous exponential growth.
For studies, Ishikawa cells were plated into 96-well microplates. The next day, the medium was changed to a phenol red-free DMEM containing 5% dFCS stripped of endogenous estrogens by dextran coated charcoal treatment.
At the end of the incubation period, APase activity was assayed by a method involving the hydrolysis of p-nitrophenyl phosphate to p-nitrophenol at pH 9.8 and spectrophotometric determination of the product at 405 nm.
In brief, the microplates were first rinsed twice with cold phosphate buffered solution and then placed at −80° C. for at least 15 minutes. After thawing at room temperature for 5-10 minutes, the plates were put on ice and 50 μl ice-cold solution containing 5 mM p-nitrophenyl phosphate was added to each well. The plates were warmed to room temperature to allow for the development of the enzymatic reaction (t0). After a 15 to 60 minute incubation period, the intensity of the yellow color generated by the production of p-nitrophenol was measured into each well at 405 nm using a microplate reader (Wallac, model 1420 Victor^2). […] Sigmoidal dose-response curves were plotted and EC50 (estrogenic effect) and IC50 (anti-estrogenic effect) values were calculated for each compound.

Where two headings read alike, the source gives them in different places.

purified full-length recombinant human ERβ, sequence (Q92731 whole entry): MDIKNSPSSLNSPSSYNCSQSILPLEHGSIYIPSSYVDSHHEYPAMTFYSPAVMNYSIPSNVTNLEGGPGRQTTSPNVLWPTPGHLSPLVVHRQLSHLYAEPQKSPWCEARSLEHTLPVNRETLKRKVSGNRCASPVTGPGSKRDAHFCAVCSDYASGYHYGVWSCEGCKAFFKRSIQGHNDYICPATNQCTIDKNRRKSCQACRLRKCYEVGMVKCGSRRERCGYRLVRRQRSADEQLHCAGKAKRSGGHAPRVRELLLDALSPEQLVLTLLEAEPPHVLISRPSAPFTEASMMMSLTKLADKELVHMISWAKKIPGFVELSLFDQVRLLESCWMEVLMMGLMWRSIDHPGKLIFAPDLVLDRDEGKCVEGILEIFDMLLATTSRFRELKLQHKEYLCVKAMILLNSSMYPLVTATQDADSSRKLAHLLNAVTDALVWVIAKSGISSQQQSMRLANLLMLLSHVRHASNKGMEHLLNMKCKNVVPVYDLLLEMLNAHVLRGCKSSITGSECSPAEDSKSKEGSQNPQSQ

Usually melting point stands for the temperature of the solid-liquid transition. `Cl.Oc1ccc2c(C3CCCC3)nn(CCN3CCCCC3)c2c1` registered a melting point of 120 °C. Consider `Cl.Oc1ccc2c(C3CCCCCC3)n[nH]c2c1`, for which the melting point worked out at 95 °C.

As for `COc1ccc(C2=COc3cc(O)cc4[nH]nc2c34)cc1.Cl`, the melting point was 255 °C. Turning to `Cl.Oc1ccc(C2=COc3cc(O)cc4[nH]nc2c34)cc1`, the melting point worked out at 111 °C. For orientation: IC50 means the concentration that inhibits the measured activity by half. “1-(aminosulfonyl)-3-cyclohexyl-1H-indazol-6-yl-sulfamate [Ex 35]”: the “RBA (%) Mean ± S.E.M, ER α” value in data set [1] is 0.1 ± 0.02%. In addition, the half-inhibitory concentration (IC50) in data set [1] (read-out: IC50 (nM) Mean ± S.E.M, ER α, 2 nM [3H]-E2, 4° C., 18-20 hours) was 2690 ± 593 nM; in data set [3] (read-out: IC50 (nM) Mean ± S.E.M, ER β, 2 nM [3H]-E2, 4° C., 18-20 hours) it was 248 ± 48.7 nM. Besides, in data set [2] (MCF-7, 10^−6 M, six days), the “Effect at 10^−6 M (% of control)” value was 162.6 % of control. In addition, the “Effect at 10^−8 M (% of control)” value in data set [2] (MCF-7, 10^−8 M, six days) was 94.4 % of control. The EC50 in data set [2] worked out at 58.2 ± 15 nM; in data set [4] (compound alone, four days, ND = not detected, read-out: Estrogenic activity EC50 (nM) ± S.E.M), 374 ± 43 nM. The “% stimulation vs vehicle (uterus weight)” value in the data set on Prepubescent female rats was 38%. Besides, in data set [3] (in words), the “selectivity for the human recombinant estrogen receptor β” value was “marked selectivity”. For the same compound, in data set [3], the “RBA (%) Mean ± S.E.M, ER β” value stood at 0.9 ± 0.1%. For the same compound, the “R (IC50s) αβ” value in data set [3] is recorded as 10.8. In addition, the “estrogenic effect in alkaline phosphatase activity in the Ishikawa cell model” value in data set [4] (in words) is “weak estrogenic effect”. Regarding `N#CC(Cc1ccc(O)cc1)c1ccc(O)cc1` (stereo not shown) [DPN, 2,3-bis-(4-hydroxyphenyl)propionitrile, reference compound], in the data set on Prepubescent female rats, the change in vivo at 3 mg came to 358%. On to `N#CC(Cc1ccc(O)c(F)c1)c1noc2cc(O)ccc12` (stereo not shown) [Ex 81, 2-(6-hydroxy-1,2-benzisoxazol-3-yl)-3-(3-fluoro-4-hydroxyphenyl)-propanenitrile], for which the melting point is 201 °C. Further, in data set [1], the IC50 was 139 ± 33.9 nM and the “RBA (%) Mean ± S.E.M, ER α” value came out at 2.4 ± 0.7%. The activity at 1 µM in data set [2] (Homo sapiens, MCF7, 144 h, MCF-7, 10^−6 M, six days, read-out: Effect at 10^−6 M (% of control)) amounted to 117%. Further, in data set [2] (Homo sapiens, MCF7, 144 h, MCF-7, 10^−8 M, six days, read-out: Effect at 10^−8 M (% of control)), the activity at 0.01 µM was 86.8%. Also, in data set [2] (Homo sapiens, MCF7, 144 h), the EC50 is 635 ± 285 nM. Also, in the data set on Prepubescent female rats, the change in vivo at 3 mg amounted to 49%. In data set [3], the half-maximal inhibitory concentration (IC50) stood at 14.4 ± 5.3 nM; the “RBA (%) Mean ± S.E.M, ER β” value stood at 35.9 ± 14.0%; the “R (IC50s) αβ” value stood at 9.7.

`Cn1nc(C2CCCCC2)c2ccc(O)cc21` [Example 25, 3-cyclohexyl-1-methyl-1H-indazol-6-ol] had a melting point of 205 °C. As to `Oc1ccc(-n2nc(C3CCCC3)c3ccc(O)cc32)cc1` [Example 26, 3-cyclopentyl-1-(4-hydroxyphenyl)-1H-indazol-6-ol], the melting point amounted to 178 °C. `Oc1ccc2c(C3CCCC3)nn(Cc3ccc(Br)cc3)c2c1` [Example 28, 1-(4-bromobenzyl)-3-cyclopentyl-1H-indazol-6-ol] yielded a melting point of 147 °C. As for `Oc1ccc2c(C3CCCCC3)nn(Cc3ccccc3)c2c1` [Example 29, 1-benzyl-3-cyclohexyl-1H-indazol-6-ol], the melting point amounted to 154 °C. `Cn1nc(C2CCCCC2)c2ccc(S(N)(=O)=O)cc21` [Example 36, 3-cyclohexyl-1-methyl-1H-indazole-6-sulfonamide]: the melting point was determined as 188 °C. Compound `NS(=O)(=O)n1nc(C2CCCCCC2)c2ccc(O)cc21` [Example 39, 3-cycloheptyl-6-hydroxy-1H-indazole-1-sulfonamide] yielded a melting point of 155 °C. Same read-out and setting: the same measure for `c1ccc(COc2ccc3c(C4CCCCCC4)noc3c2)cc1` [Example 63, 6-benzyloxy-3-cycloheptyl-1,2-benzisoxazole]: 80 °C; for `Oc1ccc2c(C34CC5CC(CC(C5)C3)C4)noc2c1` [Example 64, 3-(1-adamantyl)-1,2-benzisoxazol-6-ol]: 215 °C. For the compound `NS(=O)(=O)Oc1ccc2c(C34CC5CC(CC(C5)C3)C4)noc2c1` [Example 74, 3-(1-adamantyl)-1,2-benzisoxazol-6-yl sulfamate], the melting point was 87 °C.

As for `NS(=O)(=O)Oc1ccc2c(C3CCCCCC3)noc2c1` [Example 75, 3-cycloheptyl-1,2-benzisoxazol-6-yl sulfamate], the melting point was 82 °C.

Consider `NS(=O)(=O)Oc1ccc2c(C3CCCCC3)noc2c1` [Example 76, 3-cyclohexyl-1,2-benzisoxazol-6-yl sulfamate], for which the melting point was found to be 145 °C. On the same count and under the same terms, in the case of `COc1ccc2c(C(C#N)Cc3ccc(O)cc3C)noc2c1` (stereo not shown) [Example 82, 2-(6-methoxy-1,2-benzisoxazol-3-yl)-3-(4-hydroxy-2-methylphenyl)-propanenitrile] it was 131 °C; in that of `Oc1ccc2c(C3CCCC3)nsc2c1` [Example 94, 3-cyclopentyl-1,2-benzisothiazol-6-ol], 130 °C; in that of `NS(=O)(=O)Oc1ccc2c(C3CCCC3)nsc2c1` [Example 96, 3-cyclopentyl-1,2-benzisothiazol-6-yl sulfamate], 132 °C.

In the case of `CCCc1c(-c2ccc(O)cc2)nn(-c2ccc(O)cc2)c1-c1ccc(O)cc1` [PPT, 1,3,5-tris-(4-hydroxyphenyl)-4-propyl-1H-pyrazole, reference compound], the change in vivo at 3 mg in the data set with Prepubescent female rats worked out at 96%. Regarding `CC/C(=C(\c1ccccc1)c1ccc(OCCN(C)C)cc1)c1ccccc1` [TAM, tamoxifen, reference compound], the change in vivo at 3 mg in the data set on Prepubescent female rats came to 206%.
